Data taken from patent US11160881B2, “Dendrimer compositions for use in angiography” (The Johns Hopkins University, priority 2017, dated 2021).

Test system: leaky retinal blood vessels
Assay: Fundus fluorescence angiogram imaging in lipid injected rat CNV model
Type: in vivo, brown Norway rats
Settings: 5 mg/kg, imaging on day 21 after lipid injection, 488 filter
Method: White arrows indicate precise location of retinal leakage identified by D-FITC nanoparticles.
Dendrimer fluorescent probes were investigated for their application in longitudinal imaging of retinal inflammation and oxidative stress. […] Lipid was injected in brown Norway rats via subretinal injection at day 0 and the fluorescence angiogram imaging was performed on day 21. The rats were anesthetized and administered with sodium fluorescein or D-FITC (5 mg/kg) and the rats were imaged under Micron-3 fundus microscope using a 488 filter at different time points (10 mins, 1 hr and 4 hrs). […] Free FITC perfuses and clears from the retina quickly within 1 hr. At early time points (10 mins) post injection free FITC leaked from the retinal blood vessels (FIG. 2, white arrows) in the areas of inflammation causing fluorescence background thereby making in unclear the exact location of the leaky blood vessels.

time to clearance from the retina: ≤ 1 h
Compound: O=C1OC2(c3ccc(O)cc3Oc3cc(O)ccc32)c2ccccc21 [free FITC, sodium fluorescein]
